Experimental data taken from ChEMBL document CHEMBL1201862, “PubChem BioAssay data set” (2004).
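How tested: cells in 96-well plates exposed to compound for 48 hours at five concentrations. GI50 is the concentration that inhibits growth by half.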 Active and inactive are the calls of the source. Rule as the data show it: active = GI50 up to about 1.1 µM and inactive = higher.

Key:
Test in all cases: NCI tumour cell line growth inhibition, 48 h
[1] = tested on: TK-10
[2] = tested on: SF-295
[3] = tested on: KM12
[4] = tested on: MDA-MB-231
[5] = tested on: HCT-15
[6] = tested on: DU-145
[7] = tested on: UACC-62
[8] = tested on: SF-539
[9] = tested on: SK-MEL-5
[10] = tested on: NCI/ADR-RES
[11] = tested on: EKVX
[12] = tested on: SF-268
[13] = tested on: SK-OV-3
[14] = tested on: HCT-116
[15] = tested on: MOLT-4
[16] = tested on: OVCAR-4
[17] = tested on: HT-29
[18] = tested on: 786-0
[19] = tested on: SR

Row | SMILES | GI50 [1] | GI50 [2] | GI50 [3] | GI50 [4] | GI50 [5] [µM] | GI50 [6] | GI50 [7] | GI50 [8] | GI50 [9] | GI50 [10] | GI50 [11] | GI50 [12] | GI50 [13] | GI50 [14] | GI50 [15] | GI50 [16] | GI50 [17] | GI50 [18] | GI50 [19]
1 | OC1[C@@H]2[C@@H](O)[C@H](O)[C@@H](O)N2C[C@@H]1O (stereo partly drawn) | > 100 µM (inactive) | > 100 µM (inactive) | > 100 µM (inactive) | > 100 µM (inactive) | > 100 | > 100 µM (inactive) | > 100 µM (inactive) | > 100 µM (inactive) | > 100 µM (inactive) | > 100 µM (inactive) | > 100 µM (inactive) | > 100 µM (inactive) | > 100 µM (inactive) | > 100 µM (inactive) | > 100 µM (inactive) | > 100 µM (inactive) | > 100 µM (inactive) | > 100 µM (inactive) | 
2 | CCOC(=O)C1=c2[nH]c3cccc4cccc(c43)n2C=C(C(C)=O)C1CC(C)=O (stereo not drawn) | > 100 µM (inactive) | > 100 µM (inactive) | > 100 µM (inactive) |  | 44 | > 100 µM (inactive) | > 100 µM (inactive) |  | > 100 µM (inactive) | > 100 µM (inactive) | > 100 µM (inactive) |  | 6.4 µM (inactive) | 34.4 µM (inactive) | > 100 µM (inactive) | > 100 µM (inactive) |  | 40.4 µM (inactive) | > 100 µM (inactive)
3 | CC1CC[C@@H](C(C)C)[C@H](Oc2nnc(C3OC(CO)C(O)C3O)o2)C1 (stereo partly drawn) | > 100 µM (inactive) | > 100 µM (inactive) | > 100 µM (inactive) | > 100 µM (inactive) | > 100 | > 100 µM (inactive) | > 100 µM (inactive) | > 100 µM (inactive) | > 100 µM (inactive) | > 100 µM (inactive) | > 100 µM (inactive) | > 100 µM (inactive) | > 100 µM (inactive) | > 100 µM (inactive) | > 100 µM (inactive) | > 100 µM (inactive) | > 100 µM (inactive) | > 100 µM (inactive) | 
4 | COC(=O)C(CCCC1(c2ccccc2)OCCO1)C(C)=O (stereo not drawn) | > 100 µM (inactive) | > 100 µM (inactive) | > 100 µM (inactive) |  | > 100 |  |  | > 100 µM (inactive) | 66.4 µM (inactive) |  | > 100 µM (inactive) | > 100 µM (inactive) | > 100 µM (inactive) | > 100 µM (inactive) | > 100 µM (inactive) | > 100 µM (inactive) | > 100 µM (inactive) | > 100 µM (inactive) | 85.1 µM (inactive)
5 | CSC1=N/C(=C\c2ccc(C)cc2)C(=O)N1 | > 100 µM (inactive) | 65 µM (inactive) | > 100 µM (inactive) | 92.7 µM (inactive) | > 100 | > 100 µM (inactive) | 89.3 µM (inactive) | 41.9 µM (inactive) |  | > 100 µM (inactive) | 52.8 µM (inactive) | 59.6 µM (inactive) | > 100 µM (inactive) | 40.6 µM (inactive) | 81.5 µM (inactive) | > 100 µM (inactive) | > 100 µM (inactive) | 45.8 µM (inactive) | > 100 µM (inactive)
6 | COC(=O)c1c(C)[nH]c2c1C(=O)C(=O)c1nc(C)c(C)nc1-2 | 3.6 µM (inactive) | 4.54 µM (inactive) | 10.8 µM (inactive) |  | 9.98 | 6.04 µM (inactive) | 4.41 µM (inactive) | 10.4 µM (inactive) | 5.77 µM (inactive) | 12.7 µM (inactive) | 8.69 µM (inactive) | 9.53 µM (inactive) | 3.5 µM (inactive) | 4.28 µM (inactive) | 7.66 µM (inactive) | 12.9 µM (inactive) | 14 µM (inactive) | 10.4 µM (inactive) | 5.33 µM (inactive)
7 | O=c1c2nc3ccccc3c(=O)n2ncn1-c1ccccc1Cl | > 100 µM (inactive) | > 100 µM (inactive) | > 100 µM (inactive) | > 100 µM (inactive) | > 100 | > 100 µM (inactive) | > 100 µM (inactive) | > 100 µM (inactive) | > 100 µM (inactive) |  | > 100 µM (inactive) | > 100 µM (inactive) | > 100 µM (inactive) | > 100 µM (inactive) |  | > 100 µM (inactive) | > 100 µM (inactive) | > 100 µM (inactive) | > 100 µM (inactive)
8 | CCOC(=O)CCc1c(C)nc2c(C)c3c([nH]c4ccc(Cl)cc43)c(C)c2c1O | 10.7 µM (inactive) | 5.55 µM (inactive) | 11.7 µM (inactive) | 12.6 µM (inactive) | 12.2 | 25.5 µM (inactive) |  | 11.2 µM (inactive) | 6.12 µM (inactive) | 17.3 µM (inactive) | 10.2 µM (inactive) | 14.3 µM (inactive) |  | 10.9 µM (inactive) | 6.01 µM (inactive) | 6.89 µM (inactive) | 4.75 µM (inactive) | 6.37 µM (inactive) | 6.55 µM (inactive)
9 | COC1OC(C)C(OC(=O)C(C)(C)C)C(C)(O)C1O (stereo not drawn) | > 100 µM (inactive) | > 100 µM (inactive) | > 100 µM (inactive) |  | > 100 |  | > 100 µM (inactive) | > 100 µM (inactive) | > 100 µM (inactive) |  |  | > 100 µM (inactive) |  | > 100 µM (inactive) | > 100 µM (inactive) | > 100 µM (inactive) | > 100 µM (inactive) | > 100 µM (inactive) | > 100 µM (inactive)
10 | N#Cc1c(-c2cccc(Br)c2)cc(-c2ccc(Cl)cc2)nc1N | 18.7 µM (inactive) | 16.6 µM (inactive) | 20.9 µM (inactive) |  | 14.1 | 46 µM (inactive) | 15.3 µM (inactive) | 18.1 µM (inactive) | 15.2 µM (inactive) | 22.2 µM (inactive) | 10.5 µM (inactive) | 24.8 µM (inactive) | 16.8 µM (inactive) | 16.1 µM (inactive) | 15.8 µM (inactive) | 0.514 µM (active) | 18.7 µM (inactive) | 20.3 µM (inactive) | 19.1 µM (inactive)
11 | Cc1nc2c(n1CC(C)C)C(=O)c1ccccc1C2=O | > 100 µM (inactive) | 39.2 µM (inactive) | 37.9 µM (inactive) |  | 37.5 |  | 20.7 µM (inactive) | 24.8 µM (inactive) | 18.8 µM (inactive) |  | 38 µM (inactive) | 42.8 µM (inactive) | 62.4 µM (inactive) | 20.8 µM (inactive) | 38.6 µM (inactive) | 43.4 µM (inactive) | 34 µM (inactive) | 55.1 µM (inactive) | 41.6 µM (inactive)
12 | O=P(c1ccccc1)(c1ccccc1)c1ccc2c(c1)OCCOCCOCCOCCO2 | > 100 µM (inactive) | > 100 µM (inactive) | > 100 µM (inactive) | > 100 µM (inactive) | > 100 | > 100 µM (inactive) | > 100 µM (inactive) | > 100 µM (inactive) | > 100 µM (inactive) |  | > 100 µM (inactive) | > 100 µM (inactive) | > 100 µM (inactive) | > 100 µM (inactive) | > 100 µM (inactive) |  |  | > 100 µM (inactive) | > 100 µM (inactive)
13 | O=C1OC2C=CCC1C2 (stereo not drawn) | > 100 µM (inactive) | > 100 µM (inactive) | > 100 µM (inactive) | > 100 µM (inactive) | > 100 | > 100 µM (inactive) | > 100 µM (inactive) | > 100 µM (inactive) | > 100 µM (inactive) | > 100 µM (inactive) | > 100 µM (inactive) | > 100 µM (inactive) | > 100 µM (inactive) | > 100 µM (inactive) | > 100 µM (inactive) |  | > 100 µM (inactive) | > 100 µM (inactive) | > 100 µM (inactive)
14 | C#CC(C)(C)OC(=O)C(=[N+]=[N-])C(C)=O | > 10 µM (inactive) | > 10 µM (inactive) | > 10 µM (inactive) | > 10 µM (inactive) | > 10 | > 10 µM (inactive) | > 10 µM (inactive) | > 10 µM (inactive) | > 10 µM (inactive) |  | > 10 µM (inactive) | > 10 µM (inactive) | > 10 µM (inactive) | > 10 µM (inactive) | > 10 µM (inactive) |  | > 10 µM (inactive) | > 10 µM (inactive) | > 10 µM (inactive)
15 | O=C1CCCCC/C1=C\c1cccc(F)c1 | 62.5 µM (inactive) | > 100 µM (inactive) | 59.2 µM (inactive) | > 100 µM (inactive) | 39.8 | > 100 µM (inactive) | 67.3 µM (inactive) | > 100 µM (inactive) | 66.7 µM (inactive) | > 100 µM (inactive) | 73.8 µM (inactive) | 82.4 µM (inactive) | > 100 µM (inactive) | 54.6 µM (inactive) | 24.8 µM (inactive) |  | 60.5 µM (inactive) | > 100 µM (inactive) | 13.5 µM (inactive)
16 | COC(=O)CSc1cc(Cl)c(C)cc1S(=O)(=O)Nc1n[nH]c(N)n1 | > 10 µM (inactive) | > 10 µM (inactive) | > 10 µM (inactive) |  | > 10 | > 10 µM (inactive) |  | > 10 µM (inactive) | > 10 µM (inactive) | > 10 µM (inactive) | > 10 µM (inactive) | > 10 µM (inactive) | > 10 µM (inactive) | > 10 µM (inactive) | > 10 µM (inactive) | > 10 µM (inactive) | > 10 µM (inactive) | > 10 µM (inactive) | > 10 µM (inactive)
17 | Cc1occc1/C(S)=N\c1ccc(Cl)c(C(=O)OCC2CC2)c1 | 34.8 µM (inactive) | 29.4 µM (inactive) | 32.3 µM (inactive) | 37.8 µM (inactive) | 31.5 | 73.3 µM (inactive) | 31.3 µM (inactive) | 51.6 µM (inactive) | 41.2 µM (inactive) | 33.3 µM (inactive) | 35 µM (inactive) | 36.1 µM (inactive) | 35.6 µM (inactive) | 43.9 µM (inactive) | 14.9 µM (inactive) | 32 µM (inactive) | 34.7 µM (inactive) | 44.9 µM (inactive) | 
